In ChEMBL document CHEMBL4371076 (J Med Chem, 2019):

Tests used:
[1] = biological target: Sodium channel protein type 5 subunit alpha (Homo sapiens, UniProt Q14524); assay: Inhibition of human Nav1.5 expressed in HEK293 cells after 600 secs at -50 mV holding potential by ion works barracuda population patch clamp method; format: cell-based
[2] = biological target: T1, Sodium channel protein type 9 subunit alpha (Homo sapiens, UniProt Q15858); assay: Inhibition of human Nav1.7 expressed in HEK293 cells after 600 secs at -60 mV holding potential by ion works barracuda population patch clamp method; format: cell-based
T1 sequence (Q15858 whole entry): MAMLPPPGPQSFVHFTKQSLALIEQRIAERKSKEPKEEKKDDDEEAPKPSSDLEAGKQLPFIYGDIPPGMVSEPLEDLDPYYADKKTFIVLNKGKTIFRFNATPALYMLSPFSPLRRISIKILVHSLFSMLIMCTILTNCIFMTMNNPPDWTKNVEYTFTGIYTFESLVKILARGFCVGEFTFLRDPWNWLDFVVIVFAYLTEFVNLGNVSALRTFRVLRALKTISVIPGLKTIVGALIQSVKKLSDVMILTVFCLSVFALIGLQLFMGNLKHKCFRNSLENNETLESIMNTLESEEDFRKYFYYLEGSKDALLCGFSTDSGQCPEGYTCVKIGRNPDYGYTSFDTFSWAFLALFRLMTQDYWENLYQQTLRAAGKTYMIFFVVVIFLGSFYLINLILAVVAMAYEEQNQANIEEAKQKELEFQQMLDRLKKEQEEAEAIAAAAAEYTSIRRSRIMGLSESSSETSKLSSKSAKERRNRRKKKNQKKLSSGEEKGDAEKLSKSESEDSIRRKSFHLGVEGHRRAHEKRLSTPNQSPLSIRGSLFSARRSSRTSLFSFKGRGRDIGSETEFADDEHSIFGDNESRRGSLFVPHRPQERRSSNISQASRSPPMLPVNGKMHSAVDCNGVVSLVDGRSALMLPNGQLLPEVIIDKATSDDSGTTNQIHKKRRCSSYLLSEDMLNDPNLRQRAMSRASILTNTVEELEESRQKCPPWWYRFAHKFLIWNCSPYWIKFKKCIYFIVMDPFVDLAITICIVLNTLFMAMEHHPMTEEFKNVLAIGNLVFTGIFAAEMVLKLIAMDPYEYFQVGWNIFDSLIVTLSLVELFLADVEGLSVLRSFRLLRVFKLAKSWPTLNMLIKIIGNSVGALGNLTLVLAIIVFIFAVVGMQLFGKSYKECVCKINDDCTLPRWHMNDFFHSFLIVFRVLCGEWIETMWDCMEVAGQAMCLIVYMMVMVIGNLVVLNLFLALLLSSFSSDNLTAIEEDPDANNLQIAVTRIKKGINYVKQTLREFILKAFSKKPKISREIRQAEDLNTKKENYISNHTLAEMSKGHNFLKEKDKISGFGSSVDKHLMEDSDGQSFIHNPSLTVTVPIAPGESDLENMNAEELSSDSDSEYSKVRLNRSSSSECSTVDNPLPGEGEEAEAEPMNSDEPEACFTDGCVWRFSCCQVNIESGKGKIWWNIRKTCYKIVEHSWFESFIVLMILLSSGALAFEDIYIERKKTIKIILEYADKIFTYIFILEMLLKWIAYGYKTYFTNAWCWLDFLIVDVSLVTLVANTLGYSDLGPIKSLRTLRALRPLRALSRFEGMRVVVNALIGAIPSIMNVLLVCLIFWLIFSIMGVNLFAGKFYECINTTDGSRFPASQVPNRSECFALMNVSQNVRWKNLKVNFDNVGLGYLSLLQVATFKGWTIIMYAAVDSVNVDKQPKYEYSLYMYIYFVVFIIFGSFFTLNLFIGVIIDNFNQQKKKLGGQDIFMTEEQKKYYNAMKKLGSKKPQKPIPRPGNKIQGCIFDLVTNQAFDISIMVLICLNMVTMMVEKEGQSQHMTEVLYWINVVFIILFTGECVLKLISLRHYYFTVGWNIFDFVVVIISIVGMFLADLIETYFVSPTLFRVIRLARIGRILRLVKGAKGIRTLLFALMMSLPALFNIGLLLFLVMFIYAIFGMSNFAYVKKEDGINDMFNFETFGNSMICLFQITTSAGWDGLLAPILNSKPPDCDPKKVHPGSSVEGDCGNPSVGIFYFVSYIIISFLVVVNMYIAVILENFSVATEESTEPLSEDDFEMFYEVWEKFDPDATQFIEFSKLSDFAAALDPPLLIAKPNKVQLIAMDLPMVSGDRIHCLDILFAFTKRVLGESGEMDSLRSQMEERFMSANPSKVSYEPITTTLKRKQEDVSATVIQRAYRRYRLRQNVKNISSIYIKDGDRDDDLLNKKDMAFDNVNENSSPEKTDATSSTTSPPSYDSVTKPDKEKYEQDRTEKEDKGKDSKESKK

[3] = biological target: T2, Cytochrome P450 3A4 (Homo sapiens, UniProt P08684); assay: Inhibition of CYP3A4 in human liver microsomes; format: ADME; conditions: human, microsomes
T2 sequence (P08684 whole entry): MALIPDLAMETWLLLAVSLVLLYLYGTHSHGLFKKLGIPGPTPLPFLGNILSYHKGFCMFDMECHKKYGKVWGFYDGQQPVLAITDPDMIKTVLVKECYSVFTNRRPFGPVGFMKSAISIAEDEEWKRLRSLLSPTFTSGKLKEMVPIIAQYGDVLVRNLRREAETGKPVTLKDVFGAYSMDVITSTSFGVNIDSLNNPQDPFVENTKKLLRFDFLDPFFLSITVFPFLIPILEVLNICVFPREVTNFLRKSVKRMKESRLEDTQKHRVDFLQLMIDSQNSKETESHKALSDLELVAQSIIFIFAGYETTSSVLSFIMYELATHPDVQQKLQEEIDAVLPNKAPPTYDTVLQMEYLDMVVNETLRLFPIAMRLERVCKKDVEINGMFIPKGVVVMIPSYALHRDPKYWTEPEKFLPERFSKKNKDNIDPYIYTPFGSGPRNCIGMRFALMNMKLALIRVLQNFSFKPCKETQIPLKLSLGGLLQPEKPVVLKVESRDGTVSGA

[4] = biological target: T3, Cytochrome P450 2B6 (Homo sapiens, UniProt P20813); assay: Time-dependant inhibition of CYP2B6 in human liver microsomes; format: ADME
T3 sequence (P20813 whole entry): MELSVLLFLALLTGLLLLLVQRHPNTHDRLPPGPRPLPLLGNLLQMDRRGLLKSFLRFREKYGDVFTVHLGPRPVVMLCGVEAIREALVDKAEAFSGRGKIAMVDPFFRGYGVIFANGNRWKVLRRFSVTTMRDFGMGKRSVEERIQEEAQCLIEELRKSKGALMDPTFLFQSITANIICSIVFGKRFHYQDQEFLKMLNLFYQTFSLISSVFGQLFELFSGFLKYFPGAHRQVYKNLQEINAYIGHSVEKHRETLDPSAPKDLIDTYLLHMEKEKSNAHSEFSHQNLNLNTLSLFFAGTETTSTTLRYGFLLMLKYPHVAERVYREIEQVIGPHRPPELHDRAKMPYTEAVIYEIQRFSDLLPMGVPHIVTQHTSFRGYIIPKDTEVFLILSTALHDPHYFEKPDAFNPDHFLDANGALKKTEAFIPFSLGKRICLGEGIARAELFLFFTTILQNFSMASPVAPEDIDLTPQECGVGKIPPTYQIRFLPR

[5] = biological target: T4, Cytochrome P450 2C8 (Homo sapiens, UniProt P10632); assay: Time-dependant inhibition of CYP2C8 in human liver microsomes; format: ADME
T4 sequence (P10632 whole entry): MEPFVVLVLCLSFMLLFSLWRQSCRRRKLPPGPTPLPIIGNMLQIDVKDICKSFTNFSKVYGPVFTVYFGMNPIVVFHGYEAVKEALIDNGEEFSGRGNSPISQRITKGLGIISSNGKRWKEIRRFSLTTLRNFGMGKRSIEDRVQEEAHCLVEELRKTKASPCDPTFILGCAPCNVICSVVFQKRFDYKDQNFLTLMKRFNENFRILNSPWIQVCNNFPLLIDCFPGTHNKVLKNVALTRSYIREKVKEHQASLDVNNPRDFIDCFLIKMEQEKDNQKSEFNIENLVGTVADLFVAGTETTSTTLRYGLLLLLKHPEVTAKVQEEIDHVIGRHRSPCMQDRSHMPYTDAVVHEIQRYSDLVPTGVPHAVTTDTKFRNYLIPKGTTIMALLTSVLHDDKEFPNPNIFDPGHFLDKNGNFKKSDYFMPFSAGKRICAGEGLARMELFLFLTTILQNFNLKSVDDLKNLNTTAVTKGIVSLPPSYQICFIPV

[6] = biological target: T5, Cytochrome P450 2D6 (Homo sapiens, UniProt P10635); assay: Inhibition of CYP2D6 in human liver microsomes; format: ADME; conditions: human, microsomes
[7] = biological target: T6, Cytochrome P450 2C9 (Homo sapiens, UniProt P11712); assay: Time-dependant inhibition of CYP2C9 in human liver microsomes; format: ADME
T6 sequence (P11712 whole entry): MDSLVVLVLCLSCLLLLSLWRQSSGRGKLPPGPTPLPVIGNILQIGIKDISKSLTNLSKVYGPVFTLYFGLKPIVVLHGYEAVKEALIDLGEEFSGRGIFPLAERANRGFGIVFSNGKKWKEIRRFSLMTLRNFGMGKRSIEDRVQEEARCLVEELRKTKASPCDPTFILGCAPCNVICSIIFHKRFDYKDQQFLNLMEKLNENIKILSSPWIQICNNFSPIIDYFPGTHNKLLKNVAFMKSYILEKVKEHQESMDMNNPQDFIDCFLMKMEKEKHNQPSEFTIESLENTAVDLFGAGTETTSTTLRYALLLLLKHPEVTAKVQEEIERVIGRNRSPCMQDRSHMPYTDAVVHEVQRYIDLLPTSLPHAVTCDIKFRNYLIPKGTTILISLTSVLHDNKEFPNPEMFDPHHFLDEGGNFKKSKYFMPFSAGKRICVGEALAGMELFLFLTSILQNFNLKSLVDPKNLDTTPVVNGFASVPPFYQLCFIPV

[8] = biological target: T4, Cytochrome P450 2C8; assay: Inhibition of CYP2C8 in human liver microsomes; format: ADME; conditions: human, microsomes
[9] = biological target: T3, Cytochrome P450 2B6; assay: Inhibition of CYP2B6 in human liver microsomes; format: ADME; conditions: human, microsomes
[10] = Metabolic stability in human liver microsomes assessed as parent compound remaining at 0.5 uM after 10 mins; format: ADME, Microsome; conditions: read-out: Stability
[11] = biological target: T2, Cytochrome P450 3A4; assay: Time-dependant inhibition of CYP3A4 in human liver microsomes; format: ADME
[12] = biological target: T7, Cytochrome P450 2C19 (Homo sapiens, UniProt P33261); assay: Inhibition of CYP2C19 in human liver microsomes; format: ADME; conditions: human, microsomes
[13] = biological target: T1, Sodium channel protein type 9 subunit alpha; assay: Inhibition of recombinant human Nav1.7 expressed in HEK293 cells at -70 mV holding potential by patch clamp electrophysiology method; format: cell-based
[14] = Fraction unbound in human plasma; format: ADME, cell-free
[15] = Permeability of the compound at pH 5.5 by PAMPA; format: ADME; conditions: read-out: permeability
[16] = Metabolic stability in rat liver microsomes assessed as parent compound remaining at 0.5 uM after 10 mins; format: ADME, Microsome; conditions: read-out: Stability
[17] = Fraction unbound in mouse plasma; format: ADME, cell-free
[18] = biological target: T6, Cytochrome P450 2C9; assay: Inhibition of CYP2C9 in human liver microsomes; format: ADME; conditions: human, microsomes
[19] = Permeability of the compound at pH 7.4 by PAMPA; format: ADME; conditions: read-out: permeability
[20] = biological target: T7, Cytochrome P450 2C19; assay: Time-dependant inhibition of CYP2C19 in human liver microsomes; format: ADME
[21] = biological target: T5, Cytochrome P450 2D6; assay: Time-dependant inhibition of CYP2D6 in human liver microsomes; format: ADME
[22] = Metabolic stability in mouse liver microsomes assessed as parent compound remaining at 0.5 uM after 10 mins; format: ADME, Microsome; conditions: read-out: Stability

Chain of Sodium channel protein type 5 subunit alpha (Q14524 whole entry): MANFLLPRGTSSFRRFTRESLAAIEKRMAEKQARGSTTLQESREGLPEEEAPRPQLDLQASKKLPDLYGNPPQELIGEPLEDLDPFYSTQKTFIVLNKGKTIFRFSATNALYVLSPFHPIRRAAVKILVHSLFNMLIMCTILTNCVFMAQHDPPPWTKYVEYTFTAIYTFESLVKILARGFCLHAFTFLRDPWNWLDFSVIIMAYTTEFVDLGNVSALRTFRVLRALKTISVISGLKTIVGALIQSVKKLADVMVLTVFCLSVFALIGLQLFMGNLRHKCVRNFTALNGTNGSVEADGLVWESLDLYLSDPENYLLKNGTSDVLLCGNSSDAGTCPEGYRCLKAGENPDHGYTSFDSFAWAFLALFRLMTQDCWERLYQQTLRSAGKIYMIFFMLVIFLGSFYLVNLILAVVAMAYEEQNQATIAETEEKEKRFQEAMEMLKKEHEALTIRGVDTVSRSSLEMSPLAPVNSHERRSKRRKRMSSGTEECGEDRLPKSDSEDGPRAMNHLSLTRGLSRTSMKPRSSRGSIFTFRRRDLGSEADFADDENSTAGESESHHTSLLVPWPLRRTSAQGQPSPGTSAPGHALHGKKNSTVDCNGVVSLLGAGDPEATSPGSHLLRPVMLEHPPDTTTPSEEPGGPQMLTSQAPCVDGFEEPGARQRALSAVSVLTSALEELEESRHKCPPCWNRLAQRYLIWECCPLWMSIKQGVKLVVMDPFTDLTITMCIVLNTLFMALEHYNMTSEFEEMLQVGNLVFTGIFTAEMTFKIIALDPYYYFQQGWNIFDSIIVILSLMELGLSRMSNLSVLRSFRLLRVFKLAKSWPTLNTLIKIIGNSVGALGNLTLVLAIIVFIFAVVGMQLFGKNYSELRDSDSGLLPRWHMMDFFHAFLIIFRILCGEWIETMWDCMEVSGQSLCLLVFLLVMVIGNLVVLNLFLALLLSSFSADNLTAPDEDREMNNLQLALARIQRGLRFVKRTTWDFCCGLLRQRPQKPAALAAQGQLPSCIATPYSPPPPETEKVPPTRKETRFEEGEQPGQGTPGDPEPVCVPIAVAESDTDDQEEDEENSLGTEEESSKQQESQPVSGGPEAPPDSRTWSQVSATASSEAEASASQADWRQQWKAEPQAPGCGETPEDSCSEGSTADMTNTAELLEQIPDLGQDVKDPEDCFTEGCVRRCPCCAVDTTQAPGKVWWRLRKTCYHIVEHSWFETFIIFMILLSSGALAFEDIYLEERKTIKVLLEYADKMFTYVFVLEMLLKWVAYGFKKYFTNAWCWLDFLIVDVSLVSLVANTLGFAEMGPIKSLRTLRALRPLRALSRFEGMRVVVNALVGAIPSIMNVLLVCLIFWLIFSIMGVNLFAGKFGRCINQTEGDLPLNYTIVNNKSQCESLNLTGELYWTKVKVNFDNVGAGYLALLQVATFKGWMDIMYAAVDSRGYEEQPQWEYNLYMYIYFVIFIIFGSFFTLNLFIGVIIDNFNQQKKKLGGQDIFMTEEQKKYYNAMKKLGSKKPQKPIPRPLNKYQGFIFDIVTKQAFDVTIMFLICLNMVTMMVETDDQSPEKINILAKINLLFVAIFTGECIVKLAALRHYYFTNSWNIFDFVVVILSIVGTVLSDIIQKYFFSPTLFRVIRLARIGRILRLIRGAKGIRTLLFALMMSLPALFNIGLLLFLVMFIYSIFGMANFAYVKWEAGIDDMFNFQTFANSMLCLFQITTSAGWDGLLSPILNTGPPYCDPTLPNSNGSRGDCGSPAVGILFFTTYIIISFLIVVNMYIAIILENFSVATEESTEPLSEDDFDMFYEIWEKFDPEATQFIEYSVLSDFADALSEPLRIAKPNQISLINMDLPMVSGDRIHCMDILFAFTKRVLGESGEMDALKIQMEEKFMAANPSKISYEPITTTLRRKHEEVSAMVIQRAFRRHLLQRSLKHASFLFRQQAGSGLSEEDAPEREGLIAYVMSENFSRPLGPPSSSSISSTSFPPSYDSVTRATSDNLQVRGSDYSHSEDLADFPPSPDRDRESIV

Structure (SMILES) | IC50 [1] [nM] | IC50 [2] [nM] | also measured
CC(C)COc1ncc(-c2cn(C(C)C)c3cc(C(=O)NS(C)(=O)=O)ccc23)cc1Cl | 1700 | – | –
Cn1cc(-c2ccc(C(F)(F)F)cc2)c2ccc(C(=O)NS(C)(=O)=O)nc21 | – | 3020 | –
CN(C)S(=O)(=O)NC(=O)c1ccc2c(-c3ccc(C(F)(F)F)cc3)cn(C)c2c1 | 19000 | 1700 | –
CCc1ccc(-c2cn(C)c3cc(C(=O)NS(C)(=O)=O)ccc23)cc1 | > 30000 | – | –
COc1cc(-c2cn(C)c3cc(C(=O)NS(=O)(=O)C4CC4)ccc23)cnc1OCC(C)C | > 30000 | 85 | –
CC(C)COc1ncc(-c2c3ccc(C(=O)NS(=O)(=O)C4CC4)cc3nn2C)cc1Cl | – | 190 | –
Cn1cc(-c2cccnc2)c2ccc(C(=O)NS(C)(=O)=O)cc21 | – | > 3000 | –
CC(C)COc1ncc(-c2cn(C)c3cc(C(=O)NS(C)(=O)=O)ccc23)cc1C#N | 21000 | 70 | –
CC(C)COc1ncc(-c2cn(C)c3cc(C(=O)NS(C)(=O)=O)cnc23)cc1Cl | – | 7820 | –
CC(C)COc1ccc(-c2cn(C)c3cc(C(=O)NS(C)(=O)=O)ccc23)cn1 | > 30000 | 164 | –
Cc1cccc(-c2cn(C)c3cc(C(=O)NS(C)(=O)=O)ccc23)c1 | > 30000 | – | –
Cn1cc(-c2ccccc2)c2ccc(C(=O)NS(C)(=O)=O)cc21 | > 30000 | – | –
Cc1ccc(-c2cn(C)c3cc(C(=O)NS(C)(=O)=O)ccc23)cc1 | > 30000 | – | –
Cn1cc(-c2ccc(C(F)(F)F)cc2)c2ccc(C(=O)NS(=O)(=O)C3CC3)nc21 | – | 642 | –
Cn1cc(-c2cnc(OCC(C)(C)O)c(Cl)c2)c2ccc(C(=O)NS(C)(=O)=O)cc21 | > 30000 | > 30000 | –
Cn1cc(-c2ccc(C(F)(F)F)cc2)c2ccc(C(=O)NS(=O)(=O)c3ccc(F)c(F)c3)cc21 | – | > 3000 | –
Cn1cc(-c2ccc(C(F)F)cc2)c2ccc(C(=O)NS(C)(=O)=O)cc21 | > 30000 | – | –
Cn1cc(-c2cnc(OCC(F)F)c(Cl)c2)c2ccc(C(=O)NS(C)(=O)=O)cc21 | > 30000 | 850 | –
CC(C)COc1ncc(-c2nn(C)c3cc(C(=O)NS(=O)(=O)C4CC4)ccc23)cc1Cl | 5900 | 104 | –

Structure (SMILES) | IC50 [1] [nM] | IC50 [2] [nM] | also measured
CCc1cccc(-c2cn(C)c3cc(C(=O)NS(C)(=O)=O)ccc23)c1 | > 30000 | – | –
CC(C)COc1ncc(-c2cn(C)c3nc(C(=O)NS(C)(=O)=O)ccc23)cc1Cl | – | 1400 | –
Cn1nc(-c2ccc(C(F)(F)F)cc2)c2ccc(C(=O)NS(C)(=O)=O)cc21 | > 30000 | 194 | –
Cn1cc(-c2ccc(OC(F)(F)F)cc2)c2ccc(C(=O)NS(C)(=O)=O)cc21 | 16000 | 80 | –
Cn1cc(-c2ccc(C(F)(F)F)cc2)c2ccc(C(=O)NS(=O)(=O)C3CC3)cc21 | 8400 | 104 | inhibition (INH) [3]: Not Active; TDI [4]: Not Active; TDI [5]: Not Active; inhibition (INH) [6]: Not Active; TDI [7]: Not Active; inhibition (INH) [8]: Not Active; inhibition (INH) [9]: Not Active; remaining at 10 min, 0.5 µM [10]: 87%; TDI [11]: Not Active; inhibition (INH) [12]: Not Active; IC50 [13]: 8 nM; fraction unbound [14]: 0.002; Papp [15]: 52.5 ×10⁻⁶ cm/s; remaining at 10 min, 0.5 µM [16]: 92%; fraction unbound [17]: 0.004; inhibition (INH) [18]: Not Active; Papp [19]: 13.5 ×10⁻⁶ cm/s; TDI [20]: Not Active; TDI [21]: Not Active; remaining at 10 min, 0.5 µM [22]: 87%
Cn1nc(-c2ccc(C(F)(F)F)cc2)c2cc(F)c(C(=O)NS(C)(=O)=O)cc21 | > 30000 | 52 | –
CC(C)COc1ccc(-c2nn(C)c3cc(C(=O)NS(=O)(=O)C4CC4)c(F)cc23)cn1 | 11000 | 45 | inhibition (INH) [3]: Not Active; TDI [4]: Not Active; TDI [5]: Not Active; inhibition (INH) [6]: Not Active; TDI [7]: Not Active; inhibition (INH) [8]: Not Active; inhibition (INH) [9]: Not Active; remaining at 10 min, 0.5 µM [10]: 91%; TDI [11]: Not Active; inhibition (INH) [12]: Not Active; IC50 [13]: 43 nM; Papp [15]: 76.2 ×10⁻⁶ cm/s; remaining at 10 min, 0.5 µM [16]: 88%; fraction unbound [17]: 0.011; inhibition (INH) [18]: Not Active; Papp [19]: 10 ×10⁻⁶ cm/s; TDI [20]: Not Active; TDI [21]: Not Active; remaining at 10 min, 0.5 µM [22]: 92%
Cn1cc(-c2cnc(OCC3CC3)c(Cl)c2)c2ccc(C(=O)NS(C)(=O)=O)cc21 | – | 123 | –
CC(C)COc1ccc(-c2nn(C)c3cc(C(=O)NS(C)(=O)=O)ccc23)cn1 | > 30000 | 314 | –
CC(C)COc1ccc(-c2nn(C)c3cc(C(=O)NS(C)(=O)=O)c(F)cc23)cn1 | > 30000 | 170 | –
Cn1cc(-c2cnc(OCC(F)(F)F)c(Cl)c2)c2ccc(C(=O)NS(C)(=O)=O)cc21 | 12000 | 63 | –
Cn1cc(-c2ccc(C(F)F)cc2)c2ccc(C(=O)NS(=O)(=O)C3CC3)cc21 | > 30000 | – | –
COc1cc(-c2cn(C)c3cc(C(=O)NS(C)(=O)=O)ccc23)cnc1OCC(C)C | > 30000 | 510 | –
Cn1cc(-c2ccc(C(F)(F)F)cc2)c2cnc(C(=O)NS(C)(=O)=O)cc21 | – | > 30000 | –
Cn1cc(-c2ccc(C(F)F)cc2)c2cc(F)c(C(=O)NS(C)(=O)=O)cc21 | > 30000 | – | –
Cn1cc(-c2cccc(F)c2F)c2ccc(C(=O)NS(C)(=O)=O)cc21 | > 30000 | – | –
CC(C)COc1ncc(-c2cn(C)c3cc(C(=O)NS(=O)(=O)C4CC4)cnc23)cc1Cl | – | 2000 | –
CC(C)COc1ncc(-c2n[nH]c3cc(C(=O)NS(C)(=O)=O)ccc23)cc1Cl | – | 280 | –
CC(C)COc1ccc(-c2cn(C)c3cc(C(=O)NS(C)(=O)=O)ccc23)cc1 | 18000 | 530 | –
